Experimental findings from EP4567035A1, “NOVEL COMPOUND AS HYPOXIA-INDUCIBLE FACTOR 1(HIF-1) INHIBITOR OR VASCULAR ENDOTHELIAL GROWTH FACTOR (VEGF) INHIBITOR, AND PHARMACEUTICAL COMPOSITION COMPRISING SAME” (Nextgen Bioscience Co., Ltd., priority 2022, dated 2024) are described below.

The target in one assay is T1, HIF-1α (Homo sapiens, UniProt Q16665).
T1 construct: endogenous in cells; host or cells: ARPE-19 (ATCC CRL-2302)
The assay can be described thus: Analysis of HIF-1α protein expression (Western blot) in ARPE-19 cells under mixed hypoxic condition. The assay is classed as cell-based. The settings on record: values marked * in the table, mixed hypoxic condition (1% oxygen + CoCl2) for 24 hours, concentration range at which HIF-1α expression is reduced by 50% vs untreated control, read-out: IC50 HIF-1α, Hypoxia(24h). A digest of the protocol:
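ARPE-19 cells were pretreated 16 h or 2 h with compound (0.1 nM–10 µM, serum-free DMEM/F12), then held 1 h or 24 h in mixed hypoxia (1% O2 plus CoCl2). HIF-1α was quantified by Western blot against β-actin; the concentration range giving ≥50% reduction vs untreated control was reported.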

In another assay the test system is VEGF. The assay can be described thus: Evaluation of VEGF protein secretion level (Human VEGF ELISA) in ARPE-19 cell medium under hypoxic conditions. The class given is cell-based. Conditions: ARPE-19 cells; pretreated 2 hours, 24 hours hypoxic conditions; secreted VEGF in medium supernatant by ELISA; concentration range reducing VEGF by 50% vs untreated control; read-out: IC50 VEGF. A digest of the protocol:
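Human ARPE-19 cells were pretreated 2 h with compound (0.1 nM–10 µM, in DMEM/F12 with 1% FBS), then held 24 h in hypoxia (1% O2, 5% CO2). Secreted VEGF in the supernatant was quantified by ELISA (A450). The value is the concentration range giving ≥50% VEGF reduction versus untreated control.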

Bounds are passed on as bounds.

T1 sequence (Q16665 whole entry): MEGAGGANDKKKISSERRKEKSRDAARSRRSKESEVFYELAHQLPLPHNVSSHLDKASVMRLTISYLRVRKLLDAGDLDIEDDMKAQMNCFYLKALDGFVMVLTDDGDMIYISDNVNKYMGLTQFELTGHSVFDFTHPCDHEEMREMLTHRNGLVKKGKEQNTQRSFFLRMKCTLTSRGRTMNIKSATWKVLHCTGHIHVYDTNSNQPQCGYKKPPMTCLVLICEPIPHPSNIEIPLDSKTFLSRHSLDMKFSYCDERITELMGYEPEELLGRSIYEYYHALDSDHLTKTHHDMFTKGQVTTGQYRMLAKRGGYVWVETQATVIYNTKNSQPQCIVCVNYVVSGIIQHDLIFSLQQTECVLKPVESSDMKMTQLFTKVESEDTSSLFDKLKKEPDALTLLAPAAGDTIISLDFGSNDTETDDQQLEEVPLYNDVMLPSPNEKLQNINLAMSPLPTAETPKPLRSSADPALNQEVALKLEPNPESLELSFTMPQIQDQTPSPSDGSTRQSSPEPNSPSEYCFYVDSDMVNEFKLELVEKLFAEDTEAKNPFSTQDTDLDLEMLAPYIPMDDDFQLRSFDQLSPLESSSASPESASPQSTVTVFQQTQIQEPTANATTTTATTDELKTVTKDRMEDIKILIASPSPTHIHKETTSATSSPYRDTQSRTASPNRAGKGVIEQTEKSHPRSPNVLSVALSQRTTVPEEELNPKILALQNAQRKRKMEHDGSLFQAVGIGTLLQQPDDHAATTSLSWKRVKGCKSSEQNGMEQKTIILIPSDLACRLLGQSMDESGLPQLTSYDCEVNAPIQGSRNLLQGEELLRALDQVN

Turning to `O=C(NCc1cc(F)cc(Nc2ccon2)c1)c1ncnc2nc(C3CCCC3)[nH]c12` [Example 121, 8-Cyclopentyl-N-(3-fluoro-5-(isoxazol-3-ylamino)benzyl)-7H-purine-6-carboxamide], the DC50 at HIF-1α fell in the range of 100 to 1000 nM. For the same compound, the IC50 with VEGF is more than 10000 nM.
In the same order, the values of `N#Cc1ccc(Nc2cc(F)cc(CNC(=O)c3ncnc4nc(C5CCCC5)[nH]c34)c2)cc1` [Example 122, N-(3-((4-cyanophenyl)amino)-5-fluorobenzyl)-8-cyclopentyl-7H-purine-6-carboxamide] are less than 100 nM and less than 100 nM.
On to `CC(=O)c1ccc(-n2cc(-c3cc(F)cc(CNC(=O)c4ncnc5nc(C6CCCC6)[nH]c45)c3)cn2)cc1` [Example 123, N-(3-(1-(4-acetylphenyl)-1H-pyrazol-4-yl)-5-fluorobenzyl)-8-cyclopentyl-7H-purine-6-carboxamide], for which the DC50 on HIF-1α is less than 100 nM. In addition, the IC50 with VEGF is less than 100 nM.
Regarding `O=C(NCc1cc(F)cc(-c2cnn(-c3ccoc3)c2)c1)c1ncnc2nc(C3CCCC3)[nH]c12` [Example 124, 8-Cyclopentyl-N-(3-fluoro-5-(1-(furan-3-yl)-1H-pyrazol-4-yl)benzyl)-7H-purine-6-carboxamide], at HIF-1α, the DC50 was less than 100 nM. Also, in the assay with VEGF, the IC50 lay within 100 to 1000 nM.
In the same order, the values of `O=C(NCc1cc(F)cc(-c2cnn(-c3cnn(Cc4ccccc4)c3)c2)c1)c1ncnc2nc(C3CCCC3)[nH]c12` [Example 125, N-(3-(1'-benzyl-1'H-[1,4'-bipyrazol]-4-yl)-5-fluorobenzyl)-8-cyclopentyl-7H-purine-6-carboxamide] are less than 100 nM and 100 to 1000 nM.
In the same order, the values of `NC(=O)c1ccc(Nc2cc(F)cc(CNC(=O)c3ncnc4nc(C5CCCC5)[nH]c34)c2)cc1` [Example 126, N-(3-((4-carbamoylphenyl)amino)-5-fluorobenzyl)-8-cyclopentyl-7H-purine-6-carboxamide] are less than 100 nM and less than 100 nM.
In the same order, the values of `CCOC(=O)c1ccc(Nc2cc(F)cc(CNC(=O)c3ncnc4nc(C5CCCC5)[nH]c34)c2)cc1` [Example 127, Ethyl 4-((3-((8-cyclopentyl-7H-purine-6-carboxamido)methyl)-5-fluorophenyl)amino)benzoate] are 100 to 1000 nM and more than 10000 nM.
For `Cn1cc(-n2cc(-c3cc(F)cc(CNC(=O)c4ncnc5nc(C6CCCC6)[nH]c45)c3)cn2)cn1` [Example 128, 8-Cyclopentyl-N-(3-fluoro-5-(1'-methyl-1'H-[1,4'-bipyrazol]-4-yl)benzyl)-7H-purine-6-carboxamide], the DC50 at HIF-1α is less than 100 nM. Also, the IC50 with VEGF was less than 100 nM.
Turning to `CN1CCC(Nc2cc(F)cc(CNC(=O)c3ncnc4nc(C5CCCC5)[nH]c34)c2)CC1` [Example 129, 8-Cyclopentyl-N-(3-fluoro-5-((1-methylpiperidin-4-yl)amino)benzyl)-7H-purine-6-carboxamide], the DC50 at HIF-1α lay in the range of 1000 to 10000 nM. In the assay with VEGF, the IC50 is more than 10000 nM.
For `O=C(NCc1cc(F)cc(Nc2ccsc2)c1)c1ncnc2nc(C3CCCC3)[nH]c12` [Example 130, 8-Cyclopentyl-N-(3-fluoro-5-(thiophen-3-ylamino)benzyl)-7H-purine-6-carboxamide], in that order: less than 100 nM and 100 to 1000 nM.
In the same order, the values of `O=C(NCc1cc(F)cc(N2CCN(c3ccc(F)cc3)CC2)c1)c1ncnc2nc(C3CCCC3)[nH]c12` [Example 131, 8-Cyclopentyl-N-(3-fluoro-5-(4-(4-fluorophenyl)piperazin-1-yl)benzyl)-7H-purine-6-carboxamide] are 1000 to 10000 nM and more than 10000 nM.
In the same order, the values of `O=C(NCc1cc(F)cc(-c2nnc(-c3ccc(F)cc3)o2)c1)c1ncnc2nc(C3CCCC3)[nH]c12` [Example 132, 8-Cyclopentyl-N-(3-fluoro-5-(5-(4-fluorophenyl)-1,3,4-oxadiazol-2-yl)benzyl)-7H-purine-6-carboxamide] are 1000 to 10000 nM and more than 10000 nM.
Consider `O=C(O)c1ccc(Nc2cc(F)cc(CNC(=O)c3ncnc4nc(C5CCCC5)[nH]c34)c2)cc1` [Example 133, 4-((3-((8-Cyclopentyl-7H-purine-6-carboxamido)methyl)-5-fluorophenyl)amino)benzoic acid], for which, at HIF-1α, the DC50 was in the range of 100 to 1000 nM. In the assay on VEGF, the IC50 was more than 10000 nM.
Turning to `O=C(NCc1cc(F)cc(Nc2nnco2)c1)c1ncnc2nc(C3CCCC3)[nH]c12` [Example 134, N-(3-((1,3,4-oxadiazol-2-yl)amino)-5-fluorobenzyl)-8-cyclopentyl-7H-purine-6-carboxamide], at HIF-1α, the DC50 lay in the range of 100 to 1000 nM. Also, the IC50 in the assay on VEGF is more than 10000 nM.
In the same order, the values of `O=C(NCc1cc(F)cc(NC2CCCC2)c1)c1ncnc2nc(C3CCCC3)[nH]c12` [Example 135, 8-Cyclopentyl-N-(3-(cyclopentylamino)-5-fluorobenzyl)-7H-purine-6-carboxamide] are 100 to 1000 nM and more than 10000 nM.
Consider `O=C(NCc1cc(F)cc(Nc2nncs2)c1)c1ncnc2nc(C3CCCC3)[nH]c12` [Example 136, N-(3-((1,3,4-thiadiazol-2-yl)amino)-5-fluorobenzyl)-8-cyclopentyl-7H-purine-6-carboxamide], for which the DC50 at HIF-1α lay within 100 to 1000 nM. Moreover, in the assay with VEGF, the IC50 was more than 10000 nM.
Turning to `O=C(NCc1cc(F)cc(N2CCCN(c3ccc(F)cc3)CC2)c1)c1ncnc2nc(C3CCCC3)[nH]c12` [Example 137, 8-Cyclopentyl-N-(3-fluoro-5-(4-(4-fluorophenyl)-1,4-diazepan-1-yl)benzyl)-7H-purine-6-carboxamide], the DC50 at HIF-1α is 100 to 1000 nM. Moreover, the IC50 in the assay on VEGF was more than 10000 nM.
Regarding `O=C(NCc1cc(F)cc(-c2cnn(C3CCCC3)c2)c1)c1ncnc2nc(C3CCCC3)[nH]c12` [Example 138, 8-Cyclopentyl-N-(3-(1-cyclopentyl-1H-pyrazol-4-yl)-5-fluorobenzyl)-7H-purine-6-carboxamide], on HIF-1α, the DC50 was less than 100 nM. The IC50 in the assay on VEGF fell in the range of 100 to 1000 nM.
With `O=C(NCc1cc(F)cc(-c2cnn(C3CCCCC3)c2)c1)c1ncnc2nc(C3CCCC3)[nH]c12` [Example 139, N-(3-(1-cyclohexyl-1H-pyrazol-4-yl)-5-fluorobenzyl)-8-cyclopentyl-7H-purine-6-carboxamide], the DC50 at HIF-1α is less than 100 nM. In addition, the IC50 in the assay on VEGF is less than 100 nM.
In the case of `O=C(NCc1cc(F)cc(-c2cnn(C3CCOC3)c2)c1)c1ncnc2nc(C3CCCC3)[nH]c12` (centres unmarked) [Example 140, 8-Cyclopentyl-N-(3-fluoro-5-(1-(tetrahydrofuran-3-yl)-1H-pyrazol-4-yl)benzyl)-7H-purine-6-carboxamide], the DC50 at HIF-1α was less than 100 nM. The IC50 with VEGF is more than 10000 nM.
In the same order, the values of `O=C(NCc1cc(F)cc(-c2cnn(-c3cscn3)c2)c1)c1ncnc2nc(C3CCCC3)[nH]c12` [Example 141, 8-Cyclopentyl-N-(3-fluoro-5-(1-(thiazol-4-yl)-1H-pyrazol-4-yl)benzyl)-7H-purine-6-carboxamide] are less than 100 nM and less than 100 nM.
For `Cn1ccc(Nc2cc(F)cc(CNC(=O)c3ncnc4nc(C5CCCC5)[nH]c34)c2)c1` [Example 142, 8-Cyclopentyl-N-(3-fluoro-5-((1-methyl-1H-pyrrol-3-yl)amino)benzyl)-7H-purine-6-carboxamide], in that order: 100 to 1000 nM and more than 10000 nM.
In the same order, the values of `O=C(NCc1cc(F)cc(-c2cnn(-c3cc[s+]([O-])c3)c2)c1)c1ncnc2nc(C3CCCC3)[nH]c12` (centres unmarked) [Example 143, 8-Cyclopentyl-N-(3-fluoro-5-(1-(1-oxidothiophen-3-yl)-1H-pyrazol-4-yl)benzyl)-7H-purine-6-carboxamide] are 1000 to 10000 nM and more than 10000 nM.
With `Cn1cc(Nc2cc(F)cc(CNC(=O)c3ncnc4nc(C5CCC(F)(F)C5)[nH]c34)c2)cn1` (centres unmarked) [Example 144, 8-(3,3-Difluorocyclopentyl)-N-(3-fluoro-5-((1-methyl-1H-pyrazol-4-yl)amino)benzyl)-7H-purine-6-carboxamide], at HIF-1α, the DC50 was less than 100 nM. In the assay on VEGF, the IC50 fell in the range of 100 to 1000 nM.
In the same order, the values of `[2H]c1c([2H])c([2H])c(-n2cc(-c3cc(F)cc(CNC(=O)c4ncnc5nc(C6CCCC6)[nH]c45)c3)cn2)c([2H])c1[2H]` [Example 145, 8-Cyclopentyl-N-(3-fluoro-5-(1-phenyl-d5-1H-pyrazol-4-yl)benzyl)-7H-purine-6-carboxamide] are less than 100 nM and 100 to 1000 nM.
For `Cc1nn(-c2ccc(F)cc2)cc1-c1cc(F)cc(CNC(=O)c2ncnc3nc(C4CCCC4)[nH]c23)c1` [Example 146, 8-Cyclopentyl-N-(3-fluoro-5-(1-(4-fluorophenyl)-3-methyl-1H-pyrazol-4-yl)benzyl)-7H-purine-6-carboxamide], in that order: 100 to 1000 nM and 100 to 1000 nM.
In the same order, the values of `Cc1c(-c2cc(F)cc(CNC(=O)c3ncnc4nc(C5CCCC5)[nH]c34)c2)cnn1-c1ccc(F)cc1` [Example 147, 8-Cyclopentyl-N-(3-fluoro-5-(1-(4-fluorophenyl)-5-methyl-1H-pyrazol-4-yl)benzyl)-7H-purine-6-carboxamide] are 100 to 1000 nM and 100 to 1000 nM.
Take `[2H]c1c([2H])c([2H])c(-n2cc(-c3cc(F)cc(CNC(=O)c4ncnc5nc(C6CCC(F)(F)C6)[nH]c45)c3)cn2)c([2H])c1[2H]` (centres unmarked) [Example 148, 8-(3,3-Difluorocyclopentyl)-N-(3-fluoro-5-(1-(phenyl-d5)-1H-pyrazol-4-yl)benzyl)-7H-purine-6-carboxamide]: the DC50 on HIF-1α was less than 100 nM. For the same compound, the IC50 with VEGF lay within 100 to 1000 nM.
